For experiment [1], the system named is contracted (shrunken) erythrocytes. In words: In vitro filtrability (filtration half-time T1/2) of contracted (shrunken) erythrocytes, method of Teitel. The experiment is classed as cell-based, human. As to conditions: from ID50. The method, then:
FIG. 1 is a set of two graphs in which the filtration half-times (T1/2) for contracted (shrunken) erythrocytes are plotted along the Y-axis as a percentage of the filtration half-time for normal erythrocytes (control) against doses of respectively Trental and Depogen.
(§1) For the examination of the in vitro filtrability of the erythrocytes the method of Teitel (Nouv. Rev. Franc. Haematol. 7. 195 (1967)) was used where the filtration rate of concentrated erythrocyte suspension was measured. In the test fresh, normal erythrocytes, fresh in hyperosmotic solution shrunken erythrocytes and erythrocytes stored in CPD blood-conserving solution contracted for 30 days at +4° C. were used. The results are given in FIGS. 1 and 2 (the filtrability of the contracted erythrocytes and that of the erythrocytes stored for 30 days were given as the % of the filtrability of the control fresh, normal erythrocytes.)
(§2) The effect depends in the case of both drugs on the doses. The optimal effect may be achieved with Depogen in lower concentration interval (0.5 to 1.5 μumol) than in case of Trental (5 to 10 μumoles).

Experiment [2] has as its system erythrocytes stored for 30 days. In words: In vitro filtrability (filtration half-time T1/2) of erythrocytes stored for 30 days, method of Teitel. It counts as cell-based, human. As to conditions: from ID50. As to the method:
FIG. 2 is a set of two graphs in which the filtration half-time (T1/2) for erythrocytes stored for 30 days are plotted along the Y-axis as a percentage of the filtration half-time for normal erythrocytes (control) against doses of respectively Trental and Depogen.
as §1, §2

For experiment [3], the system named is erythrocytes. In words: In vitro filtrability of erythrocytes (filtration half-time), statements on both erythrocyte types. The experiment is classed as cell-based, human. As to conditions: for filtrability of the erythrocytes (result in words): FIGS. 1 and 2, T1/2 decreased. The method, then: as §1, §2
Experiment [4] relates to erythrocytes of patients with lower leg and cerebral obliterating vascular diseases. In words: Erythrocyte filtrability (T1/2) of patients with lower leg and cerebral obliterating vascular diseases after 10 days treatment. The experiment is classed as in vivo, human patients. As to conditions: 450 mg/day orally; for T1/2 average of erythrocyte filtration after treatment: before treatment 18.15 min, healthy control 8.7 min. As to the method: (§3) The clinical examinations carried out on patients suffering from lower leg and cerebral obliterating vascular diseases gave the following results: 41 patients were treated for 10 days in a dose of 450 mg/day Depogen or Trental orally (beside 5 healthy controls).

Experiment [5] concerns patients suffering from cerebral obliterating vascular diseases. In words: Clinical examination, cerebral obliterating vascular disease, symptoms. The experiment is classed as in vivo, human patients. As to conditions: 450 mg/day orally, 10 days. The method, then:
as §3

In experiment [6] the test system is patients suffering from lower leg obliterating vascular diseases. Nature of the experiment: Clinical examination, lower leg obliteration. It counts as in vivo, human patients. As to conditions: 450 mg/day orally, 10 days; Depogen compared with Trental. As to the method: as §3
Experiment [7] has as its system patients suffering from cerebral obliterating vascular diseases. In words: EEG examination. The experiment is classed as in vivo, human patients. As to conditions: 450 mg/day orally, 10 days; for EEG deteriorated (number of patients) / EEG improved (number of patients) / EEG unchanged (number of patients): total 9 (Trental), 8 (Depogen). The method, then: as §3
The test system is the same in experiment [8]. In words: ECHO examination. The experiment is classed as in vivo, human patients. As to conditions: 450 mg/day orally, 10 days; for ECHO deteriorated (number of patients) / ECHO improved (number of patients) / ECHO unchanged (number of patients): total 9 (Trental), 8 (Depogen). As to the method:
as §3

The subject of experiment [9] is extremital vascular resistence. As to conditions: patients, doses up to 300 mg/day; cited from earlier work.
Experiment [10] concerns erythrocytes. As to conditions: Angiology 36, 4, 226-234 (1985); cited from earlier work.

For `CCOc1ccc(CC2=NCCc3cc(OCC)c(OCC)cc32)cc1OCC` [Depogen, 1-(3',4'-diethoxybenzyl)-6,7-diethoxy-3,4-dihydroisoquinolinium-theophyllin-7-acetate], the “Rel. activity Depogen/Trental” value in experiment [1] came to 16.3. Also, in experiment [2], the “Rel. activity Depogen/Trental” value worked out at 31.6. Besides, the “filtrability of the erythrocytes (result in words)” value in [3] (in vitro) is on record as “increase the filtrability of the erythrocytes significantly”. In [3] (in vitro, concentration for the half-maximal effect), the “times lower concentration exerting the same effect as Trental” value was in the range of 10 to 25 times. For the same compound, the “optimal effect on filtrability, concentration interval” value in [3] (in vitro, Depogen) was 0.5 to 1.5 μumol. In addition, the “filtrability of pathological human erythrocytes (result in words)” value in experiment [3] (proved by both ex vitro and in vivo tests) is “increases the filtrability of the pathological human erythrocytes significantly”. In [4], the “filtrability of the erythrocytes after treatment (result in words)” value is recorded as “the filtrability of the erythrocytes has been normalized” and the “T1/2 average of erythrocyte filtration after treatment” value came to 9.53 min. In addition, the “effect in cerebral vascular disease, symptoms” value in experiment [5] is reported as “the symptoms have decreased”. Besides, the “effect in lower leg obliteration” value in [6] was “the two drugs have the same effect”. Besides, in experiment [7], the “EEG improved (% of patients)” value was found to be 87.5%, the “EEG unchanged (% of patients)” value worked out at 12.5%, the “EEG deteriorated (number of patients)” value is 0 and the “EEG improved (number of patients)” value was 7. For the same compound, the “EEG unchanged (number of patients)” value in experiment [7] is 1. In experiment [8], the “ECHO improved (% of patients)” value was 12.5%, the “ECHO unchanged (% of patients)” value was 87.5%, the “ECHO deteriorated (number of patients)” value turned out to be 0 and the “ECHO improved (number of patients)” value is recorded as 1. In addition, the “ECHO unchanged (number of patients)” value in experiment [8] was found to be 7. For the same compound, the “peripheral vasodilating effect and extremital vascular resistence” value in experiment [9] was “has a peripheral vasodilating effect and decreases the extremital vascular resistence”.
As for `CC(=O)CCCCn1c(=O)c2c(ncn2C)n(C)c1=O` [Trental, 3,7-dihydro-3,7-dimethyl-1--(5-oxohexyl)-1H-purine-2,6-dione, reference compound], in [3] (in vitro), the “filtrability of the erythrocytes (result in words)” value is given as “increase the filtrability of the erythrocytes significantly”. Further, in experiment [3] (in vitro, Trental), the “optimal effect on filtrability, concentration interval” value is on record as 5 to 10 μumoles. Also, in [4], the “filtrability of the erythrocytes after treatment (result in words)” value is reported as “the treatment was also in this case successful” and the “T1/2 average of erythrocyte filtration after treatment” value was found to be 12.1 min. In [6], the “effect in lower leg obliteration” value is recorded as “the two drugs have the same effect”. Also, in experiment [7], the “EEG improved (% of patients)” value was 44.5%, the “EEG unchanged (% of patients)” value was 55.5%, the “EEG deteriorated (number of patients)” value stood at 0 and the “EEG improved (number of patients)” value stood at 4. Moreover, the “EEG unchanged (number of patients)” value in [7] came to 5. Besides, in [8], the “ECHO unchanged (% of patients)” value amounted to 100%, the “ECHO deteriorated (number of patients)” value worked out at 0, the “ECHO improved (number of patients)” value was determined as 0 and the “ECHO unchanged (number of patients)” value is listed as 9. Further, the “rheological parameters of the blood, plasticity of the erythrocytes” value in [10] is given as “improves some rheological parameters of the blood, first of all the plasticity of the erythrocytes”.

(Values after patent US4814336A, “Method of treating a vascular obstructive lesion resulting from restricted blood circulation” (CHINOIN Gyogyszer es Vegyeszeti Termekek Gyara Rt, priority 1985, dated 1989).)
